This note sets out measurements from ChEMBL document CHEMBL3046942, “Synthesis and biological activity of new cycloalkylthiophene-Schiff bases and their Cr(III) and Zn(II) complexes” (2010).

Active and inactive are the calls of the source. The calls are words filed in the database; no cut-off is given here.

What all share (format): functional
Assay [1] relates to Listeria monocytogenes. The experiment in a line: Antibacterial activity against Listeria monocytogenes ATCC 19115 at 30 ug after 24 hr by agar well diffusion method. To be noted: ATCC 19115, 24 h, read-out: DIZ.
Assay [2] relates to Staphylococcus aureus. The experiment in a line: Antibacterial activity against Staphylococcus aureus ATCC 25923 at 30 ug after 24 hr by agar well diffusion method. To be noted: ATCC 25923, 24 h, read-out: DIZ. A general note: Agar diffusion results depend on both activity and mobility in agar.
Assay [3] relates to Pseudomonas putida. The experiment in a line: Antibacterial activity against Pseudomonas putida at 30 ug after 24 hr by agar well diffusion method. To be noted: read-out: DIZ.
Assay [4] deals with Salmonella typhimurium. The experiment in a line: Antibacterial activity against Salmonella enterica subsp. enterica serovar Typhi H NCTC 901.8394 at 30 ug after 24 hr by agar well diffusion method. To be noted: H NCTC 901.8394, 24 h, read-out: DIZ.
Assay [5] deals with Shigella boydii. The experiment in a line: Antibacterial activity against Shigella boydii type 11 at 30 ug after 24 hr by agar well diffusion method. To be noted: type 11, 24 h, read-out: DIZ.
In assay [6] the test system is Proteus. The experiment in a line: Antibacterial activity against Proteus OX2 Wrah at 30 ug after 24 hr by agar well diffusion method. To be noted: read-out: DIZ.
For assay [7], the system named is Escherichia coli. The experiment in a line: Antibacterial activity against Escherichia coli ATCC 1280 at 30 ug after 24 hr by agar well diffusion method. To be noted: ATCC 1280, 24 h, read-out: DIZ.
Assay [8] relates to Shigella boydii. The experiment in a line: Antibacterial activity against Shigella boydii type 16 at 30 ug after 24 hr by agar well diffusion method. To be noted: type 16, 24 h, read-out: DIZ.
In assay [9] the test system is Shigella boydii. The experiment in a line: Antibacterial activity against Shigella boydii type 6 RSKK-96043 at 30 ug after 24 hr by agar well diffusion method. To be noted: type 6 RSKK-96043, 24 h, read-out: DIZ.
The test system of assay [10] is Shigella boydii. The experiment in a line: Antibacterial activity against Shigella boydii type 6 RSKK-96043 at 10 ug after 24 hr by agar well diffusion method. To be noted: type 6 RSKK-96043, 24 h, read-out: DIZ.
For assay [11], the system named is Salmonella typhimurium. The experiment in a line: Antibacterial activity against Salmonella enterica subsp. enterica serovar Typhi H NCTC 901.8394 at 10 ug after 24 hr by agar well diffusion method. To be noted: H NCTC 901.8394, 24 h, read-out: DIZ.
The test system of assay [12] is Proteus. The experiment in a line: Antibacterial activity against Proteus OX2 Wrah at 10 ug after 24 hr by agar well diffusion method. To be noted: read-out: DIZ.
The subject of assay [13] is Staphylococcus aureus. The experiment in a line: Antibacterial activity against Staphylococcus aureus ATCC 25923 at 10 ug after 24 hr by agar well diffusion method. To be noted: ATCC 25923, 24 h, read-out: DIZ.
Assay [14] concerns Escherichia coli. The experiment in a line: Antibacterial activity against Escherichia coli ATCC 1280 at 10 ug after 24 hr by agar well diffusion method. To be noted: ATCC 1280, 24 h, read-out: DIZ.
For assay [15], the system named is Shigella boydii. The experiment in a line: Antibacterial activity against Shigella boydii type 11 at 10 ug after 24 hr by agar well diffusion method. To be noted: type 11, 24 h, read-out: DIZ.
In assay [16] the test system is Pseudomonas putida. The experiment in a line: Antibacterial activity against Pseudomonas putida at 10 ug after 24 hr by agar well diffusion method. To be noted: read-out: DIZ.
Assay [17] concerns Shigella boydii. The experiment in a line: Antibacterial activity against Shigella boydii type 16 at 10 ug after 24 hr by agar well diffusion method. To be noted: type 16, 24 h, read-out: DIZ.
Assay [18] relates to Listeria monocytogenes. The experiment in a line: Antibacterial activity against Listeria monocytogenes ATCC 19115 at 10 ug after 24 hr by agar well diffusion method. To be noted: ATCC 19115, 24 h, read-out: DIZ.
The test system of assay [19] is Candida albicans. The experiment in a line: Antifungal activity against Candida albicans Y-1200-NIH at 0.25 ug/ml after 24 hr by agar well diffusion method.
Assay [20] concerns Brucella abortus. The experiment in a line: Antibacterial activity against Brucella abortus RSKK-03026 at 0.25 ug/ml after 24 hr by agar well diffusion method.
Assay [21] concerns Salmonella typhimurium. The experiment in a line: Antibacterial activity against Salmonella enterica subsp. enterica serovar Typhi H NCTC 901.8394 at 0.25 ug/ml after 24 hr by agar well diffusion method. To be noted: H NCTC 901.8394, 24 h, read-out: DIZ.
For assay [22], the system named is Proteus. The experiment in a line: Antibacterial activity against Proteus OX2 Wrah at 0.25 ug/ml after 24 hr by agar well diffusion method.
The subject of assay [23] is Listeria monocytogenes. The experiment in a line: Antibacterial activity against Listeria monocytogenes ATCC 19115 at 0.25 ug/ml after 24 hr by agar well diffusion method.
For assay [24], the system named is Shigella boydii. The experiment in a line: Antibacterial activity against Shigella boydii type 16 at 0.25 ug/ml after 24 hr by agar well diffusion method. To be noted: type 16, 24 h, read-out: DIZ.
The test system of assay [25] is Pseudomonas putida. The experiment in a line: Antibacterial activity against Pseudomonas putida at 0.25 ug/ml after 24 hr by agar well diffusion method.
Assay [26] has as its system Escherichia coli. The experiment in a line: Antibacterial activity against Escherichia coli ATCC 1280 at 0.25 ug/ml after 24 hr by agar well diffusion method. To be noted: ATCC 1280, 24 h, read-out: DIZ.
In assay [27] the test system is Shigella boydii. The experiment in a line: Antibacterial activity against Shigella boydii type 6 RSKK-96043 at 0.25 ug/ml after 24 hr by agar well diffusion method. To be noted: type 6 RSKK-96043, 24 h, read-out: DIZ.
Assay [28] deals with Staphylococcus aureus. The experiment in a line: Antibacterial activity against Staphylococcus aureus ATCC 25923 at 0.25 ug/ml after 24 hr by agar well diffusion method. To be noted: ATCC 25923, 24 h, read-out: DIZ.
Assay [29] concerns Shigella boydii. The experiment in a line: Antibacterial activity against Shigella boydii type 11 at 0.25 ug/ml after 24 hr by agar well diffusion method. To be noted: type 11, 24 h, read-out: DIZ.

Regarding `O=C(N[C@H](CO)[C@H](O)c1ccc([N+](=O)[O-])cc1)C(Cl)Cl` [CHLORAMPHENICOL], the zone of inhibition at 30 µg/disc in assay [1] is 18 mm; in [2] it was 25 mm; in assay [3], 12 mm; in assay [4], 19 mm; in assay [5] it was 18 mm; in assay [6], 27 mm. Moreover, the zone of inhibition at 30 µg/disc in assay [7] worked out at 30 mm; in [8], 22 mm; in assay [9] it was 18 mm.

On to `CC1(C)S[C@@H]2[C@H](NC(=O)[C@H](N)c3ccccc3)C(=O)N2[C@H]1C(=O)O` [AMPICILLIN], for which the zone of inhibition at 10 µg/disc turned out to be 6 mm in [10]; 11 mm in assay [11]; 9 mm in assay [12]; 30 mm in assay [13]; 10 mm in [14]; 20 mm in assay [15]. In addition, the zone of inhibition at 10 µg/disc in [16] worked out at 8 mm; in assay [17], 16 mm; in assay [18], 16 mm.

Turning to `CCOC(=O)c1c(/N=C/c2c(O)ccc3ccccc23)sc2c1CCCCC2`, the zone of inhibition at 0.25 µg/mL in [19] (read-out: DIZ) worked out at 11 mm; in assay [20] (RSKK-03026, 24 h, read-out: DIZ) it was 5 mm; in [21], 8 mm; in assay [24], 8 mm; in assay [26] it was 9 mm; in assay [27], 7 mm. The zone of inhibition at 0.25 µg/mL in assay [28] was determined as 9 mm; in [29] it was 8 mm. Moreover, the “diameter of the inhibition zone (DIZ)” value in [22], in assay [23] and in assay [25] was “inactive” in each case.

For `CCOC(=O)c1c(/N=C/c2c(O)ccc3ccccc23)sc2c1CCCC2`, the “diameter of the inhibition zone (DIZ)” value in [19], in assay [20] and in assay [22] was “inactive” in each case. Further, the zone of inhibition at 0.25 µg/mL in assay [21] was 7 mm; in assay [23] (ATCC 19115, 24 h, read-out: DIZ), 9 mm; in assay [24], 8 mm; in assay [25] (read-out: DIZ), 7 mm; in [26], 6 mm; in [27], 7 mm. Besides, the values for the zone of inhibition at 0.25 µg/mL in assay [28] and in assay [29] were 9 mm and 7 mm, respectively.
